Patent US20050129662A1 (priority 2002, published 2005)

How the values were obtained:
Format in all cases: in vivo
[1] = system: peronospora (Plasmopara viticola); assay: Open-field fight against peronospora on muscat vine (Examples 2-6); conditions: 11 interventions
Text: (§1) All tables and related theses reproduced herein result from an experimental activity carried out in the open field following precise protocols and experimental guidelines.
(§2) The aim of this experimental activity was that of verifying the possibility of reducing the amount of the chemical formulation employed, while keeping the activity of same unchanged towards adversities to be fought (peronospora, mildew and Panonychus ulmi), thanks to addition of the adjuvant, preferably soybean oil.
(§3) The methodologies for detection of the efficiency results were selected depending on: the pathology to be fought, infection, % spreading of the disease for peronospora, mildew and acid rot, and depending on the count of the mite number per leaf in the fight tests against Panonychus ulmi.
(§4) Among the great number of statistical tests interpreting the experimental data items, Duncan test in the scientific field is considered as one of the best evaluation instruments for significance of the experimental data items. […] Example: 12.5a 0.9b 0.3b

Lactuga sativa = assay: Composite chemical weedkilling, spraying on trays of lettuce plants (Examples 12-15); conditions: 1 intervention; for % devitalization T + 14: 14 days from treatment; for % devitalization T + 27: 27 days from treatment
Text: • Treatment: 300 l/ha of solution were sprayed • Experimental pattern: spraying on 4 trays, each containing 8 lettuce plants • Flower survey: carried out after 14 days from treatment (T), (T+14), and after 27 days (T+27), stating the devitalization degree in percentage
Test target: Composite chemical weedkilling (Lactuga sativa)
With reference to the active ingredients employed in examples 12-15, it was an aim of this experimental research to verify the influence of the emulsion addition on the herbicide activity towards a target weed belonging to the compositae family. By virtue of the high herbicide activity of weedkillers, when applied in the amounts on the label, and in order to highlight possible efficiency variations of same among the different theses dealt with, all active ingredients were employed alone in amounts reduced by ⅓ and reduced by ⅓ in an extemporaneous mixture with the emulsion being the object of the present invention. Example: should the active ingredients have been employed to the amounts reproduced on the label, it would have been very likely to obtain a 100% devitalization of the weed with the active ingredient alone and in a mixture with the emulsion.
As to the methodologies for efficiency detection, a visual estimation was selected, by allocating a % value to the overall devitalizing activity observed on the target plant.

Panonychus ulmi = assay: Open-field fight against Panonychus ulmi on muscat vine (Examples 8-10); conditions: 1 intervention
Text: as §1, §2, §3, §4

[2] = system: mildew (Uncinula necator); conditions: muscat vine; 4795 g or ml/ha; 6 interventions

## CO/C=C(/C(=O)OC)c1ccccc1Oc1cc(Oc2ccccc2C#N)ncn1 [Azoxystrobin]
[1]; 250 g or ml/ha
  % infection on bunches: 0.0 b %
  % spreading on bunches: 0.0 b %
  Action Degree: 100

## CCCCCCCC(=O)Oc1c(Br)cc(C#N)cc1Br [Bromoxynil octanoate]
Lactuga sativa; 356 g or ml/ha
  % devitalization T + 14: 56.0%
  % devitalization T + 27: 67.5%

## O=C(O)c1nc(Cl)ccc1Cl [Clopyradil]
Lactuga sativa; 100 g or ml/ha
  % devitalization T + 14: 85.0%
  % devitalization T + 27: 87.5%

## COc1ccc(C(=CC(=O)N2CCOCC2)c2ccc(Cl)cc2)cc1OC [Dimethomorph]
[1]; 1050 g or ml/ha
  % infection on bunches: 0.0 b %
  % spreading on bunches: 0.0 b %
  Action Degree: 100

## O=C(NC(=O)c1c(F)cccc1F)Nc1ccc(Oc2ccc(C(F)(F)F)cc2Cl)cc1F [Flufenoxuron]
Panonychus ulmi; 50 g or ml/ha
  Action Degree: 68.0
  Mites per leaf 1: 1.1 b
  Mites per leaf 2: 3.0 b

## O=C1c2ccccc2C(=O)N1SC(Cl)(Cl)Cl [Folpet]
[1]; 1200 g or ml/ha
  % infection on bunches: 0.0 b %
  % spreading on bunches: 0.0 b %
  Action Degree: 100

## O=C(O)CNCP(=O)(O)O [Gliphosate]
Lactuga sativa; 360 g or ml/ha
  % devitalization T + 14: 32.0%
  % devitalization T + 27: 90.0%

## C[C@@H]1[C@@H](c2ccc(Cl)cc2)SC(=O)N1C(=O)NC1CCCCC1 [Hexythiazox]
Panonychus ulmi; f.c. 30 g or ml/ha
  Action Degree: 91.6
  Mites per leaf 1: 0.0 b
  Mites per leaf 2: 0.6 b

## O=c1[nH]c2c(c(=O)n1C1CCCCC1)CCC2 [Lenacil]
Lactuga sativa; 150 g or ml/ha
  % devitalization T + 14: 11.0%
  % devitalization T + 27: 30.0%

## S1SSSSSSS1 [Sulphur]
[2]
  % infection on bunches: 2.2 b %
  % spreading on bunches: 12.5 bd %
  Action Degree: 85.7

## CCc1nn(C)c(C(=O)NCc2ccc(C(C)(C)C)cc2)c1Cl [Tebufenpyrad]
Panonychus ulmi; 125 g or ml/ha
  Action Degree: 80.8
  Mites per leaf 1: 0.4 b
  Mites per leaf 2: 1.1 b

## Fosetyl-Aluminium
[1]; 960 g or ml/ha
  % infection on bunches: 0.3 b %
  % spreading on bunches: 0.8 b %
  Action Degree: 87.2

## Mancozeb
[1]; 1470 g or ml/ha
  % infection on bunches: 0.2 b %
  % spreading on bunches: 0.3 b %
  Action Degree: 97.4
